Measurements from PMC11859074, “Exploring the Anticancer Potential of NO-Donor Oxadiazole Assemblies Against Malignant Pleural Mesothelioma” (Pharmaceutics, 2025).
Where “and” joins values, the source holds several entries; their conditions need not be identical. Identical values can stand only once.

Experiments:
[1] = NO release assay (Griess assay, phosphate buffer with L-cysteine); details: for NO Released (%) 1 h / NO Released (%) 24 h / NO Released (%) 48 h: % NO2− (μmol/μmol) relative to initial concentration (100 μM), L-cysteine; for NO Released (%) 1 h: phosphate buffer pH 7.4, 37 °C; for NO Released (%) 24 h: phosphate buffer pH 7.4, 24 h; for NO Released (%) 48 h: phosphate buffer pH 7.4, 48 h; for Fold Change 24 h/1 h: ratio of NO released at 24 h to 1 h; for Fold Change 48 h/1 h: ratio of NO released at 48 h to 1 h; for Fold Change 48 h/24 h: ratio of NO released at 48 h to 24 h; for NO-donor capacity: Griess assay, time point not stated
[2] = tested on: MRC-5 (human embryonic lung fibroblast cell line); assay: MTT cytotoxicity assay, MRC-5 cells; format: cell-based; details: MRC5, 72 h exposure
Method: (§1) AB1 (mouse malignant mesothelioma cell line) and JU77 (human mesothelioma cell line) were obtained from Cell Bank Australia; MRC-5 (human embryonic lung fibroblast cell line) was obtained from ATCC. […] Cells were grown in tissue culture flasks (75 cm^2 and 25 cm^2, SPL Life Sciences, Pocheon, South Korea). […] The cytotoxicity of compounds was determined using the MTT colorimetric test. Cells were harvested from culture flasks by trypsinization and seeded into Cellstar 96-well microculture plates at a seeding density of 6000 cells per well (6 × 10^4 cells per mL). After the cells were allowed to resume exponential growth for 24 h, they were exposed to drugs at different concentrations in media for 72 h. The tested compounds were diluted in the complete medium at the desired concentrations added to each well (100 μL) and serially diluted to other wells. After 72 h of exposure, the medium was replaced with MTT (5 mg mL^−1, 100 μL per well) and incubated for an additional 50 min. Subsequently, the medium was aspirated, and the purple formazan crystals formed in viable cells were dissolved in DMSO (100 μL per well). […] The evaluation was based on means from at least three independent experiments, each comprising three replicates per concentration level.

[3] = tested on: AB1 (mouse malignant mesothelioma cell line); assay: MTT cytotoxicity assay, AB1 cells; format: cell-based; details: 72 h exposure
Method: as §1

[4] = tested on: JU77 (human mesothelioma cell line); assay: cells; format: cell-based; details: for IC50: Homo sapiens, MTT assay, 72 h exposure; for SFJU77 (selectivity factor): IC50(MRC-5)/IC50(JU77); for times higher cytotoxicity in human MPM cells compared to human lung fibroblasts: 72 h
Method: as §1

[5] = tested on: AB1 and JU77 mesothelioma cell lines; assay: cells; format: cell-based, mouse and human; details: for IC50: MPM, range over AB1 and JU77, 72 h MTT, read-out: IC50 values in both cell lines
Method: as §1

| SMILES | NO Released (%) 1 h [1] | NO Released (%) 24 h [1] [%] | NO Released (%) 48 h [1] [%] | Fold Change 24 h/1 h [1] | Fold Change 48 h/1 h [1] | Fold Change 48 h/24 h [1] | IC50 [2] [µM] | IC50 [3] [µM] | IC50 [4] [µM] | SFJU77 (selectivity factor) [4] | NO-donor capacity [1] [%] | times higher cytotoxicity in human MPM cells compared to human lung fibroblasts [4] | IC50 [5] [µM] | selectivity for cancer cells (in words) ([4]; MPM cells vs MRC-5 human lung fibroblasts) | cytotoxicity (in words) [5] |
| --- | --- | --- | --- | --- | --- | --- | --- | --- | --- | --- | --- | --- | --- | --- | --- |
| NC(=O)c1c(CO)no[n+]1[O-] [CAS-1609, 3-carbamoyl-4-(hydroxymethyl)furoxan, reference compound] | 27% and 27 ± 3% | 68 ± 6 | 73 ± 6 | 2.5 | 2.7 | 1.1 | – | – | – | – | – | – | – | – | – |
| CCOc1no[n+]([O-])c1S(=O)(=O)c1ccccc1 [CHF-2363, 4-ethoxy-3-phenylsulphonylfuroxan, reference compound] | 26 ± 10% | 71 ± 4 | 77 ± 9 | 2.7 | 3.0 | 1.1 | – | – | – | – | – | – | – | – | – |
| N#Cc1c(-c2noc(-c3ccccc3)n2)no[n+]1[O-] [Compound 2a, 3-Cyano-4-(5-phenyl-1,2,4-oxadiazolyl)furoxan] | 50 ± 8% | 59 ± 5 | 89 ± 6 | 1.2 | 1.8 | 1.5 | 3.7 | 3.4 ± 0.2 | 3.7 ± 1 | 1.0 | – | – | – | – | – |
| N#Cc1c(-c2noc(-c3ccc([N+](=O)[O-])cc3)n2)no[n+]1[O-] [Compound 2b, 3-Cyano-4-(5-(4-nitrophenyl)-1,2,4-oxadiazolyl)furoxan] | 51 ± 11% | 74 ± 1 | 80 ± 4 | 1.5 | 1.6 | 1.1 | 4.4 ± 0.6 | 4.1 ± 0.9 | 2.7 ± 0.2 | 1.6 | – | – | – | – | – |
| N#Cc1c(-c2noc(-c3cccc([N+](=O)[O-])c3)n2)no[n+]1[O-] [Compound 2c, 3-Cyano-4-(5-(3-nitrophenyl)-1,2,4-oxadiazolyl)furoxan] | 61 ± 8% | 107 ± 8 | 107 ± 10 | 1.8 | 1.8 | 1.0 | 4.3 ± 0.3 | 2.8 ± 0.5 | 1.2 ± 0.2 | 3.6 | > 100 | 2.4-3.6 times | – | – | – |
| N#Cc1c(-c2noc(-c3ccccc3[N+](=O)[O-])n2)no[n+]1[O-] [Compound 2d, 3-Cyano-4-(5-(2-nitrophenyl)-1,2,4-oxadiazolyl)furoxan] | 69 ± 1% | 86 ± 3 | 89 ± 3 | 1.2 | 1.3 | 1.0 | 2.2 ± 0.2 | 1.8 ± 0.2 | 0.87 ± 0.07 | 2.5 | – | 2.4-3.6 times | 0.87 to 1.8 | – | – |
| N#Cc1c(-c2noc(-c3ccncc3)n2)no[n+]1[O-] [Compound 2e, 3-Cyano-4-(5-(pyridin-4-yl)-1,2,4-oxadiazolyl)furoxan] | 53 ± 7% | 87 ± 13 | 87 ± 11 | 1.6 | 1.6 | 1.0 | 4.7 ± 0.3 | 7.9 ± 2 | 4.2 ± 0.8 | 1.1 | – | – | – | low selectivity for cancer cells | – |
| COCc1nc(-c2no[n+]([O-])c2C#N)no1 [Compound 2f, 3-Cyano-4-(5-(methoxymethyl)-1,2,4-oxadiazolyl)furoxan] | 50 ± 7% | 66 ± 11 | 71 ± 11 | 1.3 | 1.4 | 1.1 | > 150 | > 150 | > 150 | – | – | – | – | – | no cytotoxic effects |
| Cc1ccc(-c2nc(-c3no[n+]([O-])c3C#N)no2)cc1 [Compound 2g, 3-Cyano-4-(5-(p-tolyl)-1,2,4-oxadiazolyl)furoxan] | 59 ± 1% | 74 ± 6 | 81 ± 10 | 1.3 | 1.4 | 1.1 | 4.8 ± 0.3 | 4.9 ± 1.4 | 3.1 ± 0.2 | 1.5 | – | – | – | – | – |
| COc1ccc(-c2nc(-c3no[n+]([O-])c3C#N)no2)cc1 [Compound 2h, 3-Cyano-4-(5-(4-methoxyphenyl)-1,2,4-oxadiazolyl)furoxan] | 54 ± 6% | 79 ± 5 | 86 ± 4 | 1.5 | 1.6 | 1.1 | 4.2 ± 0.7 | 4.1 ± 0.7 | 2.9 ± 0.3 | 1.4 | – | – | – | – | – |
| COc1ccc(-c2nc(-c3no[n+]([O-])c3C#N)no2)cc1OC [Compound 2i, 3-Cyano-4-(5-(3,4-dimethoxyphenyl)-1,2,4-oxadiazolyl)furoxan] | 54 ± 14% | 82 ± 14 | 94 ±14 | 1.5 | 1.7 | 1.1 | 4 ± 0.6 | 3.3 ± 0.7 | 1.6 ± 0.4 | 2.5 | – | 2.4-3.6 times | – | – | – |
| N#Cc1c(-c2noc(-c3ccccc3Cl)n2)no[n+]1[O-] [Compound 2j, 4-(5-(2-Chlorophenyl)-1,2,4-oxadiazolyl)-3-cyanofuroxan] | 53 ± 4% | 80 ± 3 | 84 ± 2 | 1.5 | 1.6 | 1.1 | 3.3 ± 0.3 | 2.1 ± 0.3 | 1.4 ± 0.2 | 2.4 | – | 2.4-3.6 times | – | – | – |
| N#Cc1c(-c2noc(-c3ccco3)n2)no[n+]1[O-] [Compound 2k, 3-Cyano-4-(5-(2-furyl)-1,2,4-oxadiazolyl)furoxan] | 73 ± 7% | 97 ± 6 | 104 ± 12 | 1.3 | 1.4 | 1.1 | 1.5 ± 0.3 | 1.4 ± 0.4 | 0.99 ± 0.13 | 1.5 | > 100 | – | 0.87 to 1.8 | – | – |
